According to US20230087766A1, “METHODS OF REACTIVATING LATENT HUMAN IMMUNODEFICIENCY VIRUS AND RELATED COMPOSITIONS” (priority 2017, published 2023):

Columns and labels:
[1] = tested on: latent HIV (HIV LTR-driven transcription) in J-Lat A1 cells; format: cell-based
Method: Cell culture: J-Lat Al cells (derived from Jurkat cells harboring HIV LTR-Tat-GFP gene) and U1 cells (promonocytic cell line harboring one copy of HIV genome with defective tat gene) were obtained from NIH AIDS Reagent Program and cultured at 37° C. with 5% CO2 in RPM11640 medium containing 10% FBS and 1% penicillin-streptomycin as previously described (see G. Jiang, et al. PLoS Pathogens 11, e1005066 (2015)).
For inhibiting ACSS2 and crotonylation, cells were pretreated with ACSS2 inhibitor, AR12 (SELLECK CHEMICALS™, Houston, Tex.), for 30 minutes, followed by Na-Cro treatment for 4 or 18 hours.
Real-Time PCR Analysis: HIV gene expression was measured using real-time PCR in J-Lat Al cells treated with LRAs. Total nucleic acid was extracted using RNEASY™ Kit, genomic DNA digested using DNase I and total RNA reverse transcribed using Superscript III to synthesize cDNA. […] […] TAMRA-3′ (SEQ ID NO:3).

[2] = tested on: T cells in PBMCs from healthy HIV-negative donors; assay: Immune activation and checkpoint markers in PBMCs by flow cytometry; format: cell-based, human
Method: PBMCs from healthy HIV-negative donors (n=5) were treated with 100 ng/ml PMA 2 plus 2 μg/ml ionomycin, 30 mM Na-Cro overnight, and analyzed by flow cytometry for the expression of CD4, CD8, HLA-DR, CD69, or PD-1 in CD3+ T cells. Percentage of cells expressing immune activation markers was presented for CD3+ cells (see panel A), CD3+CD4+ T cells (see panel B), and CD3+ CD8+ T cells (see panel C). ***, p<0.001, compared with control after 24 or 72 hour treatment.
It was examined whether induction of histone crotonylation in T cells impacted the level of immune activation in these cells. Peripheral blood mononuclear cells from HIV-negative healthy donors (n=5) were treated with PMA/Ionomycin or Na-Cro for 24 hours or 72 hours. Changes in the immune cell status were examined by measuring the levels of HLA-DR, CD69, and PD-1 in the T cell subsets by flow cytometric analysis (see FIG. 9). […] Instead, it is associated with the suppression of immune activation, which may have a beneficial effect on patient immune function.

[3] = tested on: histone tails and transcription factors in J-Lat A1 cells; assay: Western blot of global histone modifications and transcription factors; format: cell-based
Excerpt: (§1) FIG. 2 is a series of images and graphs showing that histone crotonylation by sodium crotonate addition re-programs histone tails at the HIV LTR. Panel A illustrates that Na-Cro addition increased global expression of H3K4Cro, H3K4Ac, and H3K18Ac while decreasing H3K27Me3. Panel B illustrates expression of transcription factors after Na-Cro addition in J-Lat Al cells. Panels C-E illustrate that Na-Cro addition re-programmed histone tails at the HIV LTR. Chromatin immunoprecipitation (ChIP) assay was performed by using anti-H3K4Cr, anti-H3K4Ac, and anti-H3K27Me3 antibodies after J-Lat Al cells were treated with 30 mM Na-Cro for 4 hours. PCR primers were specific for the HIV LTR region.
Western Blot Analysis: Western blot analysis was performed by using one million cells treated with LRAs for 6 or 18 hours. Whole cell lysates were prepared using RIPA buffer. Nuclear Extracts were prepared using EPIQUIK™ Total Histone Extraction Kit ([…]™, Farmingdale N.Y.). Antibodies (CELL SIGNALING TECHNOLOGY®, Boston, Mass.) for Cyclin T1, CDK9, CDK9-P, NF-kB, GAPDH, and total H3 were used to detect protein expression under different drug conditions. Antibodies for H3K4Cro (PTM BIOLABS™, Chicago, Ill.), H3K27Me3 (CELL SIGNALING TECHNOLOGY®), H3K4Ac (CELL SIGNALING TECHNOLOGY®), and H3K18Ac (CELL SIGNALING TECHNOLOGY®) were used to measure histone modifications.

[4] = tested on: HIV LTR in J-Lat A1 cells; assay: Chromatin immunoprecipitation (ChIP) at the HIV LTR; format: cell-based; conditions: J-Lat A1 cells, 30 mM Na-Cro for 4 hours
Excerpt: as §1
FIG. 7 is a series of graphs showing that induction of de-crotonylation of histone tail at HIV LTR is independent of SIRTs. Panel A illustrates that J-Lat Al cells were pre-treated with either 50 μM RSV or 1 mM NAM, followed by 30 mM Na-Cro addition to reactivate latent HIV expression. Untreated controls were compared with positive controls involving individual treatment of Na-Cro, RSV, or NAM. *, p<0.05; **, p<0.01 compared with control treatment. #, p<0.05 compared with Na-Cro treatment. Panel B illustrates that gene expression of sirt1 or sirt3 was measured by RT-qPCR in J-Lat Al cells treated with either 25 μM RSV, 50 μM RSV, or 1 mM NAM. *, p<0.05 and **, p<0.01 compared with control treatment. Panels C and D illustrate that histone crotonylation induces binding of SIRT3 and SIRT1 at the HIV LTR. J-Lat Al cells were treated with 30 mM Na-Cro for 4 hours and analyzed by ChIP assays using anti-SIRT1 or anti-SIRT3 antibodies. *, p<0.05 compared with control treatment.
Chromatin Immunoprecipitation (ChIP): J-Lat Al cells (2.5 to 5 million) were utilized in ChIP assays with anti-H3K18Ac, anti-H3K4Cr, anti-H3K27Me3, anti-H3K4Ac, anti-SIRT3 (CELL SIGNALING TECHNOLOGY®), and anti-SIRT1 (CELL SIGNALING TECHNOLOGY®) antibodies. ChIP assays were performed using […]® Kit from CELL SIGNALING TECHNOLOGY® as per the manufacturer's recommendations. Samples were cross-linked using formaldehyde and 150-1000 bp fragments were made using Micrococcal Nuclease digestion and 7 cycles of 30 seconds on/30 seconds off sonication. Antibodies were used to probe respective proteins. Purification of DNA was performed using the […]® Kit Protocol. Purified ChIP DNA was used in SYBR® Green qPCR using ChIP primers specific for HIV LTR.

[5] = healthy donors n=5, 30 mM Na-Cro

C/C=C/C(=O)[O-].[Na+] [Na-Cro, sodium crotonate]
induction of HIV LTR-driven transcription ([1]; J-Lat A1 and U1 cell cultures): dose-dependent manner | reactivation of latent HIV by epigenetic modifiers ([1]; J-Lat A1 cells, 30 mM Na-Cro, 500 nM SAHA, 2 μM GSK343 or 5 μM AZA-dc, RT-qPCR): comparable capacity to reactivate latent HIV | increase in HIV transcription compared to untreated controls ([1]; J-Lat A1 cells, Na-Cro at 40 mM): 12 fold | HIV reactivation compared to the control ([1]; Na-Cro alone, AR12 experiment (FIG. 3, panel D)): 8 fold | HLA-DR expression in CD4+ or CD8+ T cells [2, 5]: inhibited HLA-DR expression at 24 and 72 hours | PD-1 expression in CD3+ T cells [2, 5]: did not change | PD-1 expression in CD4+ or CD8+ T cells [2, 5]: did not modulate PD-1 expression | HLA-DR expression in CD3+ T cells ([2]; healthy donors n=5, 30 mM Na-Cro or PMA plus ionomycin, 24 or 72 hours): suppressed HLA-DR expression at 72 hours post-treatment | expression of transcription factors involved in HIV transcription ([3]; J-Lat A1 cells): did not alter transcription factors that are involved in HIV transcription except a minor induction of CDK9 protein | global H3K4 acetylation ([3]; Na-Cro-treated T cells): increased | global H3K4 crotonylation ([3]; Na-Cro-treated T cells): increased | global H3K18 acetylation ([3]; Na-Cro-treated T cells): increased | global H3K27 trimethylation ([3]; Na-Cro-treated T cells): markedly decreased | acetylation at H3K4 at the HIV LTR [4]: increased | binding of SIRT1 at the HIV LTR [4]: efficiently bound to the HIV LTR at higher levels than controls | binding of SIRT3 at the HIV LTR [4]: efficiently bound to the HIV LTR at higher levels than controls | crotonylation at H3K4 at the HIV LTR [4]: increased | histone tri-methylation at H3K27 at the HIV LTR [4]: decreased
